Here are results for 19 molecules from patent US10464922B2, “Metalloenzyme inhibitor compounds” (NQP 1598 LTD., priority 2015, dated 2019).

≈ marks a conversion by molar mass, not a printed value.

The subject of experiment [1] is C. albicans (ATCC 90028). In words: Minimum inhibitory concentration, in vitro broth microdilution assay (CLSI M27-A2). Type of experiment: cell-based, Candida albicans. The note with it: Candida albicans, ATCC90028, 48 h, ATCC 90028; about 50% growth reduction; 2 days at 36° C.; range tested 8-0.0078 μg/mL; values given as ranges; read-out: Candida albicans MIC. In a few lines:
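CLSI M27-A2 broth microdilution: 11 two-fold DMSO dilutions into RPMI-1640+MOPS with 1×10^3–1×10^4 CFU/mL, 2 percent DMSO final. Incubated 2 days at 36° C; MIC from visual growth scoring, duplicates.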

The subject of experiment [2] is A. fumigatus. In words: A. fumigatus MIC at 100% growth inhibition (CLSI M38-A2). The following applies: Aspergillus fumigatus, 100% growth inhibition; range tested 8-0.0078 μg/mL; values given as ranges; read-out: Aspergillus fumigatus MIC. Type of experiment: cell-based, Aspergillus fumigatus. Here is the method: A. fumigatus MICs were determined at 100% growth inhibition following CLSI guidelines at a concentration range of 8-0.0078 μg/mL (CLSI M38-A2).

One may read the MIC as the least concentration at which growth counts as inhibited. As for `CCC(O)c1ccc(N2CCN(c3ccc(-c4ccc(C(F)(F)[C@](O)(Cn5cnnn5)c5ccc(F)cc5F)nc4)cc3)CC2)cn1` (stereo partly drawn) [Example 48, 1-(5-(4-(4-(6-((R)-2-(2,4-difluorophenyl)-1,1-difluoro-2-hydroxy-3-(1H-tetrazol-1-yl)propyl)pyridin-3-yl)phenyl)piperazin-1-yl)pyridin-2-yl)propan-1-ol], the MIC lay within 0.01 to 0.1 µg/mL (≈ 0.0154 to 0.154 µM) in experiment [1] and 0.25 to 1 µg/mL (≈ 0.385 to 1.54 µM) in experiment [2].

`CC(C)CC(O)c1ccc(N2CCN(c3ccc(-c4ccc(C(F)(F)[C@](O)(Cn5cnnn5)c5ccc(F)cc5F)nc4)cc3)CC2)cn1` (stereo partly drawn) [Example 49, 1-(5-(4-(4-(6-((R)-2-(2,4-difluorophenyl)-1,1-difluoro-2-hydroxy-3-(1H-tetrazol-1-yl)propyl)pyridin-3-yl)phenyl)piperazin-1-yl)pyridin-2-yl)-3-methylbutan-1-ol]: the figures for the MIC in experiment [1] and in experiment [2] were 0.01 to 0.1 µg/mL (≈ 0.0148 to 0.148 µM) and 0.062 to 0.25 µg/mL (≈ 0.0916 to 0.369 µM), respectively.

As for `CC(C)(C)C(O)c1ccc(N2CCN(c3ccc(-c4ccc(C(F)(F)[C@](O)(Cn5cnnn5)c5ccc(F)cc5F)nc4)cc3)CC2)cn1` (stereo partly drawn) [Example 50, 1-(5-(4-(4-(6-((R)-2-(2,4-difluorophenyl)-1,1-difluoro-2-hydroxy-3-(1H-tetrazol-1-yl)propyl)pyridin-3-yl)phenyl)piperazin-1-yl)pyridin-2-yl)-2,2-dimethylpropan-1-ol], the MIC in experiment [1] lay within 0.01 to 0.1 µg/mL (≈ 0.0148 to 0.148 µM); in experiment [2], 0.25 to 1 µg/mL (≈ 0.369 to 1.48 µM).

For `OC(CC(F)(F)F)c1ncc(N2CCN(c3ccc(-c4ccc(C(F)(F)[C@](O)(Cn5cnnn5)c5ccc(F)cc5F)nc4)cc3)CC2)cn1` (stereo partly drawn) [Example 51, 1-(5-(4-(4-(6-((R)-2-(2,4-difluorophenyl)-1,1-difluoro-2-hydroxy-3-(1H-tetrazol-1-yl)propyl)pyridin-3-yl)phenyl)piperazin-1-yl)pyrimidin-2-yl)-3,3,3-trifluoropropan-1-ol], the minimum inhibitory concentration (MIC) lay in the range of 0.0078 to 0.01 µg/mL (≈ 0.0111 to 0.0142 µM) in experiment [1] and 1 to 4 µg/mL (≈ 1.42 to 5.68 µM) in experiment [2].

As for `CC(C)n1ncn(-c2ccc(N3CCN(c4ccc(-c5ccc(C(F)(F)[C@](O)(Cn6cnnn6)c6ccc(F)cc6F)nc5)cc4)CC3)cc2)c1=O` [Example 52, (R)-4-(4-(4-(4-(6-(2-(2,4-difluorophenyl)-1,1-difluoro-2-hydroxy-3-(1H-tetrazol-1-yl)propyl)pyridin-3-yl)phenyl)piperazin-1-yl)phenyl)-2-isopropyl-2,4-dihydro-3H-1,2,4-triazol-3-one], the results for the MIC in experiment [1] and in experiment [2] were 0.0078 to 0.01 µg/mL (≈ 0.0109 to 0.014 µM) and 0.062 to 0.25 µg/mL (≈ 0.0867 to 0.35 µM), respectively.

As to `Cn1ncn(-c2ccc(N3CCN(c4ccc(-c5ccc(C(F)(F)[C@](O)(Cn6cnnn6)c6ccc(F)cc6F)nc5)cc4)CC3)cc2)c1=O` [Example 53, (R)-4-(4-(4-(4-(6-(2-(2,4-difluorophenyl)-1,1-difluoro-2-hydroxy-3-(1H-tetrazol-1-yl)propyl)pyridin-3-yl)phenyl)piperazin-1-yl)phenyl)-2-methyl-2,4-dihydro-3H-1,2,4-triazol-3-one], the values for the MIC in experiment [1] and in experiment [2] were 0.01 to 0.1 µg/mL (≈ 0.0146 to 0.146 µM) and 0.062 to 0.25 µg/mL (≈ 0.0903 to 0.364 µM), respectively.

`CCn1ncn(-c2ccc(N3CCN(c4ccc(-c5ccc(C(F)(F)[C@](O)(Cn6cnnn6)c6ccc(F)cc6F)nc5)cc4)CC3)cc2)c1=O` [Example 54, (R)-4-(4-(4-(4-(6-(2-(2,4-difluorophenyl)-1,1-difluoro-2-hydroxy-3-(1H-tetrazol-1-yl)propyl)pyridin-3-yl)phenyl)piperazin-1-yl)phenyl)-2-ethyl-2,4-dihydro-3H-1,2,4-triazol-3-one]: the MIC in experiment [1] was in the range of 0.01 to 0.1 µg/mL (≈ 0.0143 to 0.143 µM); in experiment [2], 0.062 to 0.25 µg/mL (≈ 0.0885 to 0.357 µM).

For `CCC(C)n1ncn(-c2ccc(N3CCN(c4ccc(-c5ccc(C(F)(F)[C@](O)(Cn6cnnn6)c6ccc(F)cc6F)nc5)cc4)CC3)cc2)c1=O` (stereo partly drawn) [Example 55, 2-(sec-butyl)-4-(4-(4-(4-(6-((R)-2-(2,4-difluorophenyl)-1,1-difluoro-2-hydroxy-3-(1H-tetrazol-1-yl)propyl)pyridin-3-yl)phenyl)piperazin-1-yl)phenyl)-2,4-dihydro-3H-1,2,4-triazol-3-one], the MIC was 0.01 to 0.1 µg/mL (≈ 0.0137 to 0.137 µM) in experiment [1] and 0.062 to 0.25 µg/mL (≈ 0.0851 to 0.343 µM) in experiment [2].

On to `CC(O)c1ccc(N2CCN(c3ccc(-c4ccc(C(F)(F)[C@](O)(Cn5cnnn5)c5ccc(F)cc5F)nc4)cc3)CC2)cc1` (stereo partly drawn) [Example 56, (2R)-2-(2,4-difluorophenyl)-1,1-difluoro-1-(5-(4-(4-(4-(1-hydroxyethyl)phenyl)piperazin-1-yl)phenyl)pyridin-2-yl)-3-(1H-tetrazol-1-yl) propan-2-ol], for which the MIC in experiment [1] fell in the range of 0.01 to 0.1 µg/mL (≈ 0.0158 to 0.158 µM); in experiment [2], 0.25 to 1 µg/mL (≈ 0.395 to 1.58 µM).

As to `CC[C@H](NC(=O)c1ccc(N2CCN(c3ccc(-c4ccc(C(F)(F)[C@](O)(Cn5cnnn5)c5ccc(F)cc5F)nc4)cc3)CC2)cc1)[C@H](C)O` [Example 57, 4-(4-(4-(6-((R)-2-(2,4-difluorophenyl)-1,1-difluoro-2-hydroxy-3-(1H-tetrazol-1-yl)propyl)pyridin-3-yl)phenyl)piperazin-1-yl)-N-((2S,3S)-2-hydroxypentan-3-yl) benzamide], the MIC in experiment [1] is 0.01 to 0.1 µg/mL (≈ 0.0139 to 0.139 µM); in experiment [2] it was 0.25 to 1 µg/mL (≈ 0.348 to 1.39 µM).

On to `O=c1n(-c2ccc(N3CCN(c4ccc(-c5ccc(C(F)(F)[C@](O)(Cn6cnnn6)c6ccc(F)cc6F)nc5)cc4)CC3)cc2)cnn1CC(F)(F)F` [Example 58, (R)-4-(4-(4-(4-(6-(2-(2,4-difluorophenyl)-1,1-difluoro-2-hydroxy-3-(1H-tetrazol-1-yl)propyl)pyridin-3-yl)phenyl)piperazin-1-yl)phenyl)-2-(2,2,2-trifluoroethyl)-2,4-dihydro-3H-1,2,4-triazol-3-one], for which the MIC lay within 0.0078 to 0.01 µg/mL (≈ 0.0103 to 0.0133 µM) in experiment [1] and 0.062 to 0.25 µg/mL (≈ 0.0822 to 0.331 µM) in experiment [2].

Regarding `CCC(C)C(O)c1ccc(N2CCN(c3ccc(-c4ccc(C(F)(F)[C@](O)(Cn5cnnn5)c5ccc(F)cc5F)nc4)cc3)CC2)cc1` (stereo partly drawn) [Example 59, 1-(4-(4-(4-(6-((R)-2-(2,4-difluorophenyl)-1,1-difluoro-2-hydroxy-3-(1H-tetrazol-1-yl)propyl)pyridin-3-yl)phenyl)piperazin-1-yl)phenyl)-2-methylbutan-1-ol], the MIC in experiment [1] was in the range of 0.0078 to 0.01 µg/mL (≈ 0.0115 to 0.0148 µM); in experiment [2], 0.25 to 1 µg/mL (≈ 0.37 to 1.48 µM).

`O=c1[nH]ncn1-c1ccc(N2CCN(c3ccc(-c4ccc(C(F)(F)[C@](O)(Cn5cnnn5)c5ccc(F)cc5F)nc4)cc3)CC2)cc1` [Example 60, (R)-4-(4-(4-(4-(6-(2-(2,4-difluorophenyl)-1,1-difluoro-2-hydroxy-3-(1H-tetrazol-1-yl)propyl)pyridin-3-yl)phenyl)piperazin-1-yl)phenyl)-2,4-dihydro-3H-1,2,4-triazol-3-one]: the MIC in experiment [1] was 0.0078 to 0.01 µg/mL (≈ 0.0116 to 0.0149 µM); in experiment [2], 0.25 to 1 µg/mL (≈ 0.372 to 1.49 µM).

For `CN(C)CCn1ncn(-c2ccc(N3CCN(c4ccc(-c5ccc(C(F)(F)[C@](O)(Cn6cnnn6)c6ccc(F)cc6F)nc5)cc4)CC3)cc2)c1=O` [Example 61, (R)-4-(4-(4-(4-(6-(2-(2,4-difluorophenyl)-1,1-difluoro-2-hydroxy-3-(1H-tetrazol-1-yl)propyl)pyridin-3-yl)phenyl)piperazin-1-yl)phenyl)-2-(2-(dimethylamino)ethyl)-2,4-dihydro-3H-1,2,4-triazol-3-one], the MIC in experiment [1] is 0.01 to 0.1 µg/mL (≈ 0.0134 to 0.134 µM); in experiment [2] it was 0.25 to 1 µg/mL (≈ 0.336 to 1.34 µM).

For the molecule `OC(c1ccc(N2CCN(c3ccc(-c4ccc(C(F)(F)[C@](O)(Cn5cnnn5)c5ccc(F)cc5F)nc4)cc3)CC2)s1)C(F)(F)F` (stereo partly drawn) [Example 62, (2R)-2-(2,4-difluorophenyl)-1,1-difluoro-3-(1H-tetrazol-1-yl)-1-(5-(4-(4-(5-(2,2,2-trifluoro-1-hydroxyethyl)thiophen-2-yl)piperazin-1-yl)phenyl)pyridin-2-yl) propan-2-ol], the MIC in experiment [1] lay within 0.0078 to 0.01 µg/mL (≈ 0.0112 to 0.0144 µM); in experiment [2] it was 0.25 to 1 µg/mL (≈ 0.36 to 1.44 µM).

Consider `CCC(C)C(O)c1ccc(N2CCN(c3ccc(-c4ccc(C(F)(F)[C@](O)(Cn5cnnn5)c5ccc(F)cc5F)nc4)cc3)CC2)cn1` (stereo partly drawn) [Example 65, 1-(5-(4-(4-(6-((R)-2-(2,4-difluorophenyl)-1,1-difluoro-2-hydroxy-3-(1H-tetrazol-1-yl)propyl)pyridin-3-yl)phenyl)piperazin-1-yl)pyridin-2-yl)-2-methylbutan-1-ol], for which the values for the minimal inhibitory concentration (MIC) in experiment [1] and in experiment [2] were 0.0078 to 0.01 µg/mL (≈ 0.0115 to 0.0148 µM) and 0.25 to 1 µg/mL (≈ 0.369 to 1.48 µM), respectively.

Regarding `CCC(CC)n1ncn(-c2ccc(N3CCN(c4ccc(-c5ccc(C(F)(F)[C@](O)(Cn6cnnn6)c6ccc(F)cc6F)nc5)cc4)CC3)cc2)c1=O` [Example 66, (R)-4-(4-(4-(4-(6-(2-(2,4-difluorophenyl)-1,1-difluoro-2-hydroxy-3-(1H-tetrazol-1-yl)propyl)pyridin-3-yl)phenyl)piperazin-1-yl)phenyl)-2-(pentan-3-yl)-2,4-dihydro-3H-1,2,4-triazol-3-one], the MIC in experiment [1] fell in the range of 0.0078 to 0.01 µg/mL (≈ 0.0105 to 0.0135 µM); in experiment [2], 0.25 to 1 µg/mL (≈ 0.337 to 1.35 µM).

Turning to `CC(C)(O)Cn1ncn(-c2ccc(N3CCN(c4ccc(-c5ccc(C(F)(F)[C@](O)(Cn6cnnn6)c6ccc(F)cc6F)nc5)cc4)CC3)cc2)c1=O` [Example 67, (R)-4-(4-(4-(4-(6-(2-(2,4-difluorophenyl)-1,1-difluoro-2-hydroxy-3-(1H-tetrazol-1-yl)propyl)pyridin-3-yl)phenyl)piperazin-1-yl)phenyl)-2-(2-hydroxy-2-methylpropyl)-2,4-dihydro-3H-1,2,4-triazol-3-one], the MIC in experiment [1] was in the range of 0.0078 to 0.01 µg/mL (≈ 0.0105 to 0.0134 µM); in experiment [2], 0.062 to 0.25 µg/mL (≈ 0.0832 to 0.336 µM).

Take `CC(C)C(C)C(O)c1ccc(N2CCN(c3ccc(-c4ccc(C(F)(F)[C@](O)(Cn5cnnn5)c5ccc(F)cc5F)nc4)cc3)CC2)cn1` (stereo partly drawn) [Example 68, 1-(5-(4-(4-(6-((R)-2-(2,4-difluorophenyl)-1,1-difluoro-2-hydroxy-3-(1H-tetrazol-1-yl)propyl)pyridin-3-yl)phenyl)piperazin-1-yl)pyridin-2-yl)-2,3-dimethylbutan-1-ol]: the MIC in experiment [1] fell in the range of 0.0078 to 0.01 µg/mL (≈ 0.0113 to 0.0145 µM); in experiment [2] it was 0.25 to 1 µg/mL (≈ 0.362 to 1.45 µM).
